Experimental data from article PMC9780888, “4-Isobutylmethcathinone—A Novel Synthetic Cathinone with High In Vitro Cytotoxicity and Strong Receptor Binding Preference of Enantiomers” (Pharmaceuticals, 2022).

Tests used:
[1] = tested on: MRC-5 cells; test: Fluorescence microscopy of cell morphology, MRC-5; assay type: cell-based, human; conditions: MRC-5, 24-h treatment, 100-500 µM
From the text: In addition to the evaluation of IBMcat cytotoxicity in various cell lines, its impact on cell morphology was also examined in CaCo-2 and MRC-5 cells after 24-h treatment. F-actin and cell nuclei were visualized in these cells treated with 100, 300, and 500-µM concentrations of IBMcat and its enantiomers. IBMcat (Figure 7) induced a considerable change in CaCo-2 cell morphology already from 300-µM concentration, the cells were smaller, bore roundish shapes, and grew in clusters when compared to control untreated cells. This could be ascribed to the substantial toxicity of IBMcat manifested already after 24 h at this concentration. No difference was observed between the individual enantiomers.
A total of 1 × 10^5 CaCo-2 and MRC-5 cells were seeded into 35-mm glass-bottom dishes for live-cell imaging ((#1.5, MatTek, USA; Ibidi dishes, Germany). After 16 h, the cells were gently washed with phosphate-buffered saline (PBS; pH 7.4), and then, cultivation media containing 100–500 µM IBMCat was added. Untreated cells and cells treated with the vehicle served as controls. After 24 h of the cell incubation with IBMCat, the cells were gently washed with PBS and then fixed with a 4% solution of formaldehyde (methanol-free, Thermo Fisher, USA) in PBS for 20 min. at 22 °C in the dark. Then, the fixative was discarded, and the cells were washed twice with PBS. […]

[2] = biological target: T1, ADRA2C (alpha-2C adrenergic receptor) (Homo sapiens, UniProt P18825); test: PRESTO-Tango β-arrestin 2 recruitment assay, ADRA2C; assay type: cell-based; conditions: 500 nM
T1 construct: Tango construct (TEV cleavage site and tTA, as described for the dopamine receptor plasmids); host or cells: HTLA (HEK 293-derived)
T1 sequence (P18825 whole entry): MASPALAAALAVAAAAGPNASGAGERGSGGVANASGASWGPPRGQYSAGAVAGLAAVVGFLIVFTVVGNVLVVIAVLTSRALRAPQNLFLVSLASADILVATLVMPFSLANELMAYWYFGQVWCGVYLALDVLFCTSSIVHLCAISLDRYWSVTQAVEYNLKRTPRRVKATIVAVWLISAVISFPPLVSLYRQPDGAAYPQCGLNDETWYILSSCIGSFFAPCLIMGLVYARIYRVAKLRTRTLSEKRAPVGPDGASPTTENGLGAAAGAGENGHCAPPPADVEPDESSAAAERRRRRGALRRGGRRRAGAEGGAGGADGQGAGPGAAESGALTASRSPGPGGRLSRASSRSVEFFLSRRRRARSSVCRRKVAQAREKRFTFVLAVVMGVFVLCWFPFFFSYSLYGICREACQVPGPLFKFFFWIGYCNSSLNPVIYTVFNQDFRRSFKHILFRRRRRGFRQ
Procedure: (§1) The HTLA cell line was used for the PRESTO-Tango β-arrestin recruitment assay. The HTLA cells were provided as a gift from the laboratory of Bryan Roth (Roth Lab, USA). It is a human cell line derived from human embryonic kidney cells (HEK 293) stably expressing β-arrestin in a fusion with the tobacco etch virus protease (TEV) protease and the luciferase gene under the control of the transcription factor tetracycline transcriptional activator (tTA). The HTLA cells were cultured under standard incubation conditions (37 °C, 5% CO2, 95% humidity) in DMEM with 10% FBS. […]
The transfected HTLA cells were incubated for 24 h, and then 1 × 10^4 cells were seeded per well of a white 96-well clear bottom plate (Brand, Germany) in 40 μL of DMEM with 1% charcoal-stripped FBS (Thermo Fisher Scientific, USA). […] After 5 min., the luminescence was measured using a multi-mode microplate reader SpectraMax iD5 (Molecular Devices, San Jose, CA, USA) measuring the entire wavelength spectrum. All samples were measured in quadruplicates. The data were evaluated by Prism 7 software (GraphPad, […], CA, USA). […]
The error bar represents standard deviation from four replicates. The data were processed and evaluated by GraphPad Prism Software using one-way ANOVA: * p<0.05; ** p<0.01; *** […]

[3] = biological target: T2, HTR2B (5-hydroxytryptamine receptor 2B) (Homo sapiens, UniProt P41595); test: PRESTO-Tango β-arrestin 2 recruitment assay, HTR2B; assay type: cell-based; conditions: 0-500 nM
T2 construct: Tango construct (TEV cleavage site and tTA, as described for the dopamine receptor plasmids); host or cells: HTLA (HEK 293-derived)
T2 sequence (P41595 whole entry): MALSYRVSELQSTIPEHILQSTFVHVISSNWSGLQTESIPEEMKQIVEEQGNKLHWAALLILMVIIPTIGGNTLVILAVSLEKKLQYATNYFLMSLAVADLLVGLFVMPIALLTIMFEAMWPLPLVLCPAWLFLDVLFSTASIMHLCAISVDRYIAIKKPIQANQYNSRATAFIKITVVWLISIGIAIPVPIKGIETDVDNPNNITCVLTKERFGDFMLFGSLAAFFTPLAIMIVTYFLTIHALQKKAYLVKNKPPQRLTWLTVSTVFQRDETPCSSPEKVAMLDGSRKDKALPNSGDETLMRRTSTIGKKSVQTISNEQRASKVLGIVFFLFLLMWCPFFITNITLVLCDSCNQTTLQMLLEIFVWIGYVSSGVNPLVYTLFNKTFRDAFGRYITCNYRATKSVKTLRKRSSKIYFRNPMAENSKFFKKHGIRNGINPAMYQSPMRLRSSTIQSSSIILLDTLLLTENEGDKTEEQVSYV
Procedure: as §1
(§2) The transfected HTLA cells were incubated for 24 h, and then 1 × 10^4 cells were seeded per well of a white 96-well clear bottom plate (Brand, Germany) in 40 μL of DMEM with 1% charcoal-stripped FBS (Thermo Fisher Scientific, USA). […] After 5 min., the luminescence was measured using a multi-mode microplate reader SpectraMax iD5 (Molecular Devices, San Jose, CA, USA) measuring the entire wavelength spectrum. All samples were measured in quadruplicates. The data were evaluated by Prism 7 software (GraphPad, San Jose, CA, USA).
(§3) Figure S13: β-arrestin 2 recruitment PRESTO-Tango assay: activation of the serotonin receptors. […] The data were processed and evaluated by GraphPad Prism Software using one-way […]

[4] = biological target: T3, HTR2A (5-hydroxytryptamine receptor 2A) (Homo sapiens, UniProt P28223); test: PRESTO-Tango β-arrestin 2 recruitment assay, HTR2A; assay type: cell-based; conditions: 0-500 nM
T3 construct: Tango construct (TEV cleavage site and tTA, as described for the dopamine receptor plasmids); host or cells: HTLA (HEK 293-derived)
T3 sequence (P28223 whole entry): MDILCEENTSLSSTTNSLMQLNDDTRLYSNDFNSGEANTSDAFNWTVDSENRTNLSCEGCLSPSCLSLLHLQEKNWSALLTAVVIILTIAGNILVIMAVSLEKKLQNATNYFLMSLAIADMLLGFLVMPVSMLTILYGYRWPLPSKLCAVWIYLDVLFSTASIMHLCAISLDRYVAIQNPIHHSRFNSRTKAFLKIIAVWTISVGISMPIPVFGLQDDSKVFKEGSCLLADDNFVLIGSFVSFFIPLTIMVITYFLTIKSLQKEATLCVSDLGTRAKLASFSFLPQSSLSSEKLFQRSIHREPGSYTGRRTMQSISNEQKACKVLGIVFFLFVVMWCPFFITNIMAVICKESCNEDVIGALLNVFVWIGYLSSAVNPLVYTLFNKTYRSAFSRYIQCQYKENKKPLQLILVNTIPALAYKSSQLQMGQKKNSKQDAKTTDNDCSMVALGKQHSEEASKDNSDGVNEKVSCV
Procedure: as §1, §2, §3

CNC(C)C(=O)c1ccc(CC(C)C)cc1.Cl (centres unmarked) [IBMcat, 4-isobutylmethcathinone hydrochloride]
cell number compared with control [1]: considerably lesser cells than in the control
effect on cell shape [1]: did not induce any shape-related effect
increase in RLU compared to untreated control [2]: 3.7 fold
agonistic activity for HTR2B [3]: did not exhibit any agonistic activity
agonistic activity for HTR2A [4]: did not exhibit any agonistic activity
